What all share (type): cell-based
The subject of assay [1] is HSV-1. As to the kind of experiment: qPCR of ICP-0 mRNA in HSV-1 infected Hep-2 cells. The following applies: 100 μM, 24 hours pretreatment, 0, 6, 12 and 24 hours after infection, vs DMSO, FIG. 8. The text has this: The inhibition of triggered expression of at least a portion of the HSV-1 genome and the inhibited proliferation of HSV-1, which may be the result of the former, indicate that compounds in accordance with General Formula 1, including derivatives in accordance with any of General Formulae 1-1 to 1-20, can treat viral infections. The treatment provided by compounds in accordance with General Formula 1, including derivatives in accordance with any of General Formulae 1-1 to 1-20, may be the result of either inhibition of transcription of viral mRNAs containing an IRES or the inhibited expression of viral proteins encoded by such within the IRES reading frame of such an mRNA. Determining whether mRNA transcription or protein expression is being inhibited can be accomplished by assessing the amount of mRNA containing an IRES is diminished by treatment with a compound in accordance with General Formula 1, including derivatives in accordance with any of General Formulae 1-1 to 1-20. FIG. 8 reports the amount of mRNA of the IE gene ICP-0 detected in Hep-2 cells following treatment with SD-29.
Hep-2 cells were pretreated with either DSMO as a control, 100 μM SD-29 or 100 μM SD29-12. After 24 hours of pretreatment, the Hep-2 cells were infected with HSV-1. At 0, 6, 12 and 24 hours after infection, the total RNA within the cells was isolated. […]

Assay [2] relates to HSV-1. As to the kind of experiment: Western assay of IE, DE and L HSV-1 proteins (ICP0, ICP8, gD) in infected Hep-2 cells. The following applies: 100 μM, 24 hours pretreatment, HSV-1 0.01 to 1.25 MOI, twenty hours after infection, FIG. 6. The text has this: Compounds in accordance with General Formula 1, including derivatives in accordance with any of General Formulae 1-1 to 1-20, can be evaluated for the capacity to inhibit triggered expression of at least a portion of a virus genome containing an IRES sequence by administering the compound, or a pharmaceutically acceptable salt of the compound, to a cell culture and exposing the cell culture to a HSV-1 infection. After a sufficient amount of time, the culture can be examined to determine the expression of IE, DE and L genes. If the amount of at least one protein corresponding to an IE gene and at least one protein corresponding to a DE and/or L gene within the viral genome is diminished compared to that within an identical infected cell culture not treated with the compound or its salt, then the compound would be capable of inhibiting triggered expression of at least a portion of the viral genome. […]
Compounds in accordance with General Formula 1, including derivatives in accordance with any of General Formulae 1-1 to 1-20, or pharmaceutically acceptable salts thereof, can be assessed for the ability to inhibit triggered expression of at least a portion of the HSV-1 genome by infecting Hep-2 cells with the HSV-1 virus. […]

Assay [3] relates to HSV-1. Kind of assay: Plaque forming assay, Hep-2 cell monolayers infected with HSV-1. The following applies: Hep-2 cells, 100 μM. As for the experimental part:
The ability of a virus to infect cells can be assessed using a plaque assay. In a plaque assay, an infected cell culture is grown under a nutrient gel. During culturing, the virus being study infects cells and replicates. However, the spread of virus to other cells is limited by the overlaying nutrient gel. As such, replicated virus released from one infected cell can only infect neighboring cells. The spread of virus amongst neighboring cells creates a plaque that can be visualized by staining. By counting the visible plaques, the amount of plaque forming units (pfu) per mL can be determined. If cells treated with a compound display a reduced amount of pfu compared to cells not treated with the compound after being infected with same amount of viral particles, then the reduction in pfu would have to be result of the ability of the […] virus. Thus, the ability of a compound in accordance with General Formula 1, including derivatives in accordance with any of General Formulae 1-1 to 1-20, to inhibit the ability of HSV-1 to proliferate can be assessed with a plaque assay.
Hep-2 cell monolayers were placed in well plates. The plated Hep-2 cells were treated with either DSMO as a control, 100 μM SD-29 or 100 μM SD29-12. A total of 6 well plates were prepared for each treatment condition. To each treated well plate an HSV-1 infecting solution comprising 1 mL of supernatants containing of the same amount of serially diluted HSV-1 particles were added. Accordingly, the treated well plates were infected with infection solutions containing the same amount of HSV-1 particles. After adsorption for 2 hours, the medium was removed and the treated cells were washed twice with serum-free DMEM and overlaid with phenol-free DMEM containing 5% FCS, 0.5% low-melting point agarose (GIBCO), and 1% penicillin-streptomycin. After either 0, 6, 12, 24 hours, the plaques present in each treated well plate were stained red and the number of plaques presented counted. Table 1 reports the mean plaque forming unit (pfu) determined for each treated well plate after averaging the number of pfu from the different plates receiving the same treatment.

On to `Nn1c(S)nnc1-c1ccc(F)cc1` [SD-29], for which the “ICP-0 mRNA level / transcription of IE genes” value in the assay with HSV-1 [1] is listed as “does not inhibit transcription of mRNA corresponding to IE genes”. Also, in the assay with HSV-1 [2], the “expression of IE, DE and L HSV-1 proteins (triggered expression)” value is on record as “significantly inhibited triggered expression”. Moreover, the “mean plaque forming unit (pfu)” value in the assay on HSV-1 [3] (0 hpi) is recorded as 0 pfu; with HSV-1 [3] (6 hpi) it was 0 pfu; in the assay on HSV-1 [3] (12 hpi) it was 100 pfu; in the assay on HSV-1 [3] (24 hpi) it was 180000 pfu. Further, in the assay on HSV-1 [3] (Table 1 and FIG. 7), the “number of pfu compared to DMSO control (in words)” value was “reduced number of pfu compared to control”.

The record behind these values is patent US11576901B2, “Methods for treating viral infection” (HOWARD UNIVERSITY, priority 2016, dated 2023).
